According to ChEMBL document CHEMBL3886568, “Pyridine derivatives as agonists of the CB2 receptor” (2016):
pEC50: −log10 of the molar value.

Biological target: Cannabinoid receptor 1 (Homo sapiens, UniProt P21554)
Assay: cAMP Assay: CHO cells expressing human CB1 or CB2 receptors are seeded 17-24 hours prior to the experiment 50.000 cells per well in a black 96 well plate with flat clear bottom (Corning Costar #3904) in DMEM (Invitrogen No. 31331), 1×HT supplement, with 10% fetal calf serum and incubated at 5% CO2 and 37° C. in a humidified incubator. The growth medium was exchanged with Krebs Ringer Bicarbonate buffer with 1 mM IBMX and incubated at 30° C. for 30 min Compounds were added to a final assay volume of 100 ul and incubated for 30 min at 30° C. Using the cAMP-Nano-TRF detection kit the assay (Roche Diagnostics) was stopped by the addition of 50 ul lysis reagent (Tris, NaCl, 1.5% Triton X100, 2.5% NP40, 10% NaN3) and 50 ul detection solutions (20 uM mAb Alexa700-cAMP 1:1, and 48 uM Ruthenium-2-AHA-cAMP) and shaken for 2 h at room temperature. The time-resolved energy transfer is measured by a TRF reader (Evotec Technologies GmbH), equipped with a ND:YAG laser as excitation source. The plate is measured twice with the excitation at 355 nm and at the emission with a delay of 100 ns and a gate of 100 ns, total exposure time 10 s at 730 (bandwidth 30 nm) or 645 nm (bandwidth 75 nm), respectively. The FRET signal is calculated.
Type: functional, cell-based

Sequence of Cannabinoid receptor 1 (P21554 whole entry): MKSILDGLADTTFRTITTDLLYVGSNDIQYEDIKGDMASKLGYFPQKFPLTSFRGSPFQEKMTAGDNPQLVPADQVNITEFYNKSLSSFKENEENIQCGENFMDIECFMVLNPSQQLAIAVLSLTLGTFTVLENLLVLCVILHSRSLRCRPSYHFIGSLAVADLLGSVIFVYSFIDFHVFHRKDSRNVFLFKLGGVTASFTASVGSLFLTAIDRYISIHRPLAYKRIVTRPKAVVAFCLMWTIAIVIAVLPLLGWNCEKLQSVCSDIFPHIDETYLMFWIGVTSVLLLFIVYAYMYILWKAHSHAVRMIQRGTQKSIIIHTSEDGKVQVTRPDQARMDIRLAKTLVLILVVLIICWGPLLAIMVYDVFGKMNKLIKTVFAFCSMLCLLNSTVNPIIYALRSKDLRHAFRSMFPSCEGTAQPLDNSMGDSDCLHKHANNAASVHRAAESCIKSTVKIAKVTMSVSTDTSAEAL

O=C(N[C@@H](CC1CC1)C(=O)NC1CCC(O)C1)c1ccc(C2CC2)c(OCC2CC2)n1 (stereo partly specified)
pEC50: < 5.00
